From ChEMBL document CHEMBL5346961, “Discovery and Evaluation of 3-Quinoxalin Urea Derivatives as Potent, Selective, and Orally Available ATM Inhibitors Combined with Chemotherapy for the Treatment of Cancer via Goal-Oriented Molecule Generation and Virtual Screening” (J Med Chem, 2023)
Active and inactive are the calls of the source. No cut-off for these calls is given here.

What was measured:
[1] = molecular target: T1, Serine-protein kinase ATM (Homo sapiens, UniProt Q13315); assay: Inhibition of ATM (unknown origin) assessed as remaining activity at 0.01 uM preincubated with compound for 30 mins followed by substrate addition and measured after 2 hrs by HTRF method relative to control; details: time 2.5 hrs
T1 sequence (Q13315 whole entry): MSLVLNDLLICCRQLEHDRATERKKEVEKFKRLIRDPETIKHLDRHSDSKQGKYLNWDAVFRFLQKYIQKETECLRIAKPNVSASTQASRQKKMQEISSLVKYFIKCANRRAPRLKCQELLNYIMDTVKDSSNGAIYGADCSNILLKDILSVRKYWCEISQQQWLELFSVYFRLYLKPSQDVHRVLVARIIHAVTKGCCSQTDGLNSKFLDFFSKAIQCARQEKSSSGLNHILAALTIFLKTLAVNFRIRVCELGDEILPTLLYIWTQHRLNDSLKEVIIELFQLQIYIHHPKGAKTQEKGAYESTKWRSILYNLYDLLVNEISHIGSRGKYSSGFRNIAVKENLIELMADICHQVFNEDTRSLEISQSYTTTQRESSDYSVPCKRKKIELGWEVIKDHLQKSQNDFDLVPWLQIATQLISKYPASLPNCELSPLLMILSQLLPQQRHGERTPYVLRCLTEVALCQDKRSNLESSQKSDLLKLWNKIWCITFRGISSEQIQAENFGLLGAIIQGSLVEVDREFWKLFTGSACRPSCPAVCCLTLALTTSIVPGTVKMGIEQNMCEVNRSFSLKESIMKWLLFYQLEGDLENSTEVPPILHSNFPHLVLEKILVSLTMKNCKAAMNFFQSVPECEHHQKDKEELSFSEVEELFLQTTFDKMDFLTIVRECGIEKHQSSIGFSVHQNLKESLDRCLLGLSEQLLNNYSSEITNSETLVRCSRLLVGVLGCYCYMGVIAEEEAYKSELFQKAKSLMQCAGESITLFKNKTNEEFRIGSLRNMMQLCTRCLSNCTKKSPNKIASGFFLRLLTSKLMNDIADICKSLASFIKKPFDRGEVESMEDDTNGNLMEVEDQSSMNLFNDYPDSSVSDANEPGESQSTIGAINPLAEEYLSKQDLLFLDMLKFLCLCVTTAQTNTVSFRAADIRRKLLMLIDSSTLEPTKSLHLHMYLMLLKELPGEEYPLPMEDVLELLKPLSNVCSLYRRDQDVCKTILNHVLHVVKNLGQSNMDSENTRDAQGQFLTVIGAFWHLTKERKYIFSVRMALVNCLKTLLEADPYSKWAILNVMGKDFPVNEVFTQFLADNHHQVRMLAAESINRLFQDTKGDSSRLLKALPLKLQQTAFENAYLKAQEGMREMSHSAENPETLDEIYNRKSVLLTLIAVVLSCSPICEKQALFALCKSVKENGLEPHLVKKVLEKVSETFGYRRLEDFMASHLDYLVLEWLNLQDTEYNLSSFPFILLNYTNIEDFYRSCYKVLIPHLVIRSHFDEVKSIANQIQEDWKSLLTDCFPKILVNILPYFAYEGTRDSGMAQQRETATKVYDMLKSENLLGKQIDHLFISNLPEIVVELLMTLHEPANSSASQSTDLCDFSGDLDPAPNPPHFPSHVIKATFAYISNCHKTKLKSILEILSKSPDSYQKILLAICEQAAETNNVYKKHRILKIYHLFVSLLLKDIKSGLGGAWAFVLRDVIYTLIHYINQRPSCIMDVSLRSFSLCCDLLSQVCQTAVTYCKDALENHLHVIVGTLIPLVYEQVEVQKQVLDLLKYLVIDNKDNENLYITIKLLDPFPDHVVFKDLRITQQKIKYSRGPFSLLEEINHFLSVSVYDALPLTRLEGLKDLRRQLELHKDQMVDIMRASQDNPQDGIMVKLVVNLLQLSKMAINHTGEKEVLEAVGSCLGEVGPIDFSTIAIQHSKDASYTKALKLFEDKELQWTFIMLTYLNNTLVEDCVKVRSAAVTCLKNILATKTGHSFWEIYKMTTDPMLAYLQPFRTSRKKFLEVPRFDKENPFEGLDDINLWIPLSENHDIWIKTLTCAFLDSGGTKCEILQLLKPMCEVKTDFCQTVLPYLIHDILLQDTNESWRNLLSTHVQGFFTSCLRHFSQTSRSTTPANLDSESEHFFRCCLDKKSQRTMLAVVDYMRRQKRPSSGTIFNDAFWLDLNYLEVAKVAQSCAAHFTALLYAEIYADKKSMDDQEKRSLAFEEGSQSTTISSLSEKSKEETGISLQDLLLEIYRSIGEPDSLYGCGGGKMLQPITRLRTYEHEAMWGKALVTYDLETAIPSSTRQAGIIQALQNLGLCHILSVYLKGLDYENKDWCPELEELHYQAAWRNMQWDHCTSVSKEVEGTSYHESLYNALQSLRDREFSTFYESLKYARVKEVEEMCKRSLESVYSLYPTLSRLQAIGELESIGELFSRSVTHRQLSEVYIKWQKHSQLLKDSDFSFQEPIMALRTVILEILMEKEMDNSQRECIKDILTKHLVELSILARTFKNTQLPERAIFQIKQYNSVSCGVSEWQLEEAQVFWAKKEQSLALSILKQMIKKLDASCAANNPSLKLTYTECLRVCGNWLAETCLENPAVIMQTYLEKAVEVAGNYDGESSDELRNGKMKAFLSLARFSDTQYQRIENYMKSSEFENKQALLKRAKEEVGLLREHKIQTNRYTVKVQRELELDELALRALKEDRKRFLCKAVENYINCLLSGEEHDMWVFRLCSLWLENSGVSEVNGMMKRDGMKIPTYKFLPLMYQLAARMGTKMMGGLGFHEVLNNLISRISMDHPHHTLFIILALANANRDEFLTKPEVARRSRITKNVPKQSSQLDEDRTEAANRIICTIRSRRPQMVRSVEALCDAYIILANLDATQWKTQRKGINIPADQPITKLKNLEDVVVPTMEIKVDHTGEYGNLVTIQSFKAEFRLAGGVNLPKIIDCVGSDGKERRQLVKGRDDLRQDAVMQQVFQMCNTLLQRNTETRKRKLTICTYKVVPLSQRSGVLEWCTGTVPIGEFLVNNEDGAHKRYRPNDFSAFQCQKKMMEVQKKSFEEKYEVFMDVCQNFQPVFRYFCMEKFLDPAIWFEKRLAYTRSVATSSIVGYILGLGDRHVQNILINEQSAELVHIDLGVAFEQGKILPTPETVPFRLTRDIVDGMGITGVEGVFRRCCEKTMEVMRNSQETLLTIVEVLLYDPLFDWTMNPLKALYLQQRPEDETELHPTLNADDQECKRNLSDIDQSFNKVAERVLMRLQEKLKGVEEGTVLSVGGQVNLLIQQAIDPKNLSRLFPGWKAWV

[2] = molecular target: T1, Serine-protein kinase ATM; assay: Inhibition of ATM (unknown origin) preincubated with compound for 30 mins followed by substrate addition and measured after 2 hrs by HTRF method
SW-620 [3] = assay: Antiproliferative activity against human SW620 cells assessed as reduction in cell viability incubated for 6 days by MTT assay; assay type: functional, cell-based; details: SW-620, 144 h
MCF7 [4] = assay: Antiproliferative activity against human MCF7 cells assessed as reduction in cell viability incubated for 6 days by MTT assay; assay type: functional, cell-based; details: MCF7, 144 h
MCF7 [5] = assay: Synergistic antiproliferative activity against human MCF7 cells assessed as fold increase in irinotecan IC50 at 200 nM measured after 6 days by MTT assay; assay type: functional; details: time 6 day
MCF7 [6] = assay: Synergistic antiproliferative activity against human MCF7 cells assessed as combination index at […] measured after 6 days in presence irinotecan by MTT assay; assay type: functional; details: dose lower 100 µM; time 6 day
SW-620 [7] = assay: Synergistic inhibition of colony formation in human SW620 cells assessed as fold increase in irinotecan IC50 at 200 nM preincubated for 1 hr followed by irinotecan addition and measured after 1 week by crystal violet staining based […] assay; assay type: functional; details: time 169 hrs
HCT-116 [8] = assay: Induction of apoptosis in human HCT-116 cells assessed as viable cells at 4 uM measured after 2 days in presence of irinotecan by AnnexinV-FITC/PI staining based analysis (reference value: 72.8%); assay type: functional; details: HCT-116, 48 h, time 2 day, read-out: Activity
HCT-116 [9] = assay: Induction of apoptosis in human HCT-116 cells assessed as viable cells at 1 uM measured after 2 days by AnnexinV-FITC/PI staining based analysis (reference value: 72.8%); assay type: functional; details: HCT-116, 48 h, time 2 day, read-out: Activity
HCT-116 [10] = assay: Induction of apoptosis in human HCT-116 cells assessed as viable cells at 4 uM measured after 2 days by AnnexinV-FITC/PI staining based analysis (reference value: 72.8%); assay type: functional; details: HCT-116, 48 h, time 2 day, read-out: Activity
HCT-116 [11] = assay: Induction of apoptosis in human HCT-116 cells assessed as early apoptotic cells at 1 uM measured after 2 days by AnnexinV-FITC/PI staining based analysis (reference value: 14.4%); assay type: functional; details: time 2 day
HCT-116 [12] = assay: Induction of apoptosis in human HCT-116 cells assessed as late apoptotic cells at 2 uM measured after 2 days by AnnexinV-FITC/PI staining based analysis (reference value: 12.2%); assay type: functional; details: time 2 day
HCT-116 [13] = assay: Induction of apoptosis in human HCT-116 cells assessed as necrotic cells at 2 uM measured after 2 days by AnnexinV-FITC/PI staining based analysis (reference value: 0.64%); assay type: functional; details: time 2 day
HCT-116 [14] = assay: Induction of apoptosis in human HCT-116 cells assessed as necrotic cells at 4 uM measured after 2 days by AnnexinV-FITC/PI staining based analysis (reference value: 0.64%); assay type: functional; details: time 2 day
HCT-116 [15] = assay: Induction of apoptosis in human HCT-116 cells assessed as early apoptotic cells at 2 uM measured after 2 days in presence of irinotecan by AnnexinV-FITC/PI staining based analysis (reference value: 14.4%); assay type: functional; details: time 2 day
HCT-116 [16] = assay: Induction of apoptosis in human HCT-116 cells assessed as late apoptotic cells at 4 uM measured after 2 days in presence of irinotecan by AnnexinV-FITC/PI staining based analysis (reference value: 12.2%); assay type: functional; details: time 2 day
HCT-116 [17] = assay: Induction of apoptosis in human HCT-116 cells assessed as necrotic cells at 1 uM measured after 2 days in presence of irinotecan by AnnexinV-FITC/PI staining based analysis (reference value: 0.64%); assay type: functional; details: time 2 day
HCT-116 [18] = assay: Induction of cell cycle arrest in human HCT-116 cells at 1 to 4 uM measured after 48 hrs by propidium iodide staining based flow cytometry analysis; assay type: functional; details: dose 1-4 µM
HCT-116 [19] = assay: Induction of cell cycle arrest in human HCT-116 cells assessed as increase in accumulation of cells at G2/M phase at 1 to 4 uM measured after 48 hrs in presence of irinotecan by propidium iodide staining based flow cytometry analysis; assay type: functional; details: dose 1-4 µM
HCT-116 [20] = assay: Induction of cell cycle arrest in human HCT-116 cells assessed as loss in accumulation of cells at G0/G1 phase at 1 to 4 uM measured after 48 hrs in presence of irinotecan by propidium iodide staining based flow cytometry analysis; assay type: functional; details: dose 1-4 µM
[21] = molecular target: T1, Serine-protein kinase ATM; assay: Inhibition of ATM (unknown origin) at 1 uM in presence of [gamma33P-ATP] by scintillation counting method relative to control
[22] = molecular target: T2, DNA-dependent protein kinase catalytic subunit (Homo sapiens, UniProt P78527); assay: Inhibition of DNA-PK (unknown origin) at 1 uM in presence of [gamma33P-ATP] by scintillation counting method relative to control
[23] = molecular target: T2, DNA-dependent protein kinase catalytic subunit; assay: Inhibition of DNA-PK (unknown origin) in presence of [gamma33P-ATP] by scintillation counting method
[24] = Apparent permeability of compound across apical to basal membrane in human Caco-2 cells; assay type: ADME, cell-based
[25] = Tmax in Balb/C mouse at 10 mg/kg,iv measured upto 48 hrs by LC-MS/MS analysis; assay type: ADME, organism-based; details: in vivo
[26] = Half life in Balb/C mouse at 10 mg/kg,iv measured upto 48 hrs by LC-MS/MS analysis; assay type: ADME, organism-based; details: in vivo
[27] = Half life in Balb/C mouse at 10 mg/kg,po measured upto 48 hrs by LC-MS/MS analysis; assay type: ADME, organism-based; details: in vivo
[28] = Clearance in Balb/C mouse at 10 mg/kg,iv measured upto 48 hrs by LC-MS/MS analysis; assay type: ADME, organism-based; details: in vivo
[29] = Clearance in Balb/C mouse at 10 mg/kg,po measured upto 48 hrs by LC-MS/MS analysis; assay type: ADME, organism-based; details: in vivo
[30] = Volume of distribution at steady state in Balb/C mouse at 10 mg/kg,iv measured upto 48 hrs by LC-MS/MS analysis; assay type: ADME, organism-based; details: in vivo, read-out: Vdss
[31] = Oral bioavailability in Balb/C mouse at 10 mg/kg measured upto 48 hrs by LC-MS/MS analysis; assay type: ADME, organism-based; details: in vivo
SW-620 [32] = assay: Antitumor activity against human SW620 cells xenografted in BALB/c nude mouse model assessed as tumor growth inhibition at 40 mg/kg, po administered once daily for 3 days weekly after irinotecan post treatment for 21 days by caliper method relative to control; assay type: functional; details: SW-620, 504 h, time 21 day, read-out: TGI
[33] = Toxicity in BALB/c nude mouse assessed as reduction in body weight at 20 to 40 mg/kg, po administered once daily for 3 days weekly after irinotecan post treatment for 21 days in presence of irinotecan relative to control; assay type: organism-based; parameters: scale not given: the % may be the effect or the level left; details: in vivo, 504 h, dose 20-40 mg/kg, time 21 day
HCT-116 [34] = assay: Induction of DNA damage in human HCT-116 cells assessed as reduction in p21 phosphorylation at T145 residue at 0.5 to 2 uM measured after 4 hrs by Western blot analysis; assay type: functional, cell-based; details: dose 0.5-2 µM
HCT-116 [35] = assay: Induction of DNA damage in human HCT-116 cells assessed as decrease in gammaH2AX fluorescence intensity measured after 6 hrs in presence of irinotecan by fluorescence microscopic analysis; assay type: functional, cell-based; details: dose 0.5-2 µM

**Q.** With `CC(C)NC(=O)N(C)c1cnc2ccc(-c3ccc(OCCCN4CCCCC4)nc3)cc2n1` as the compound, how does the Activity [1] read?
**A.** 2%

**Q.** What about the IC50 [2] of the same compound?
**A.** 1.15 nM

**Q.** What about the IC50 (SW-620 [3]) of the same compound?
**A.** > 9000 nM

**Q.** And the IC50 (MCF7 [4])?
**A.** > 9000 nM

**Q.** What about the “fold change (FC)” value (MCF7 [5]) of the same compound?
**A.** 15

**Q.** What about the CI (MCF7 [6]) of the same compound?
**A.** <1

**Q.** What about the “fold change (FC)” value (SW-620 [7]) of the same compound?
**A.** 11.5

**Q.** What about the viability at 4 µM (HCT-116 [8]) of the same compound?
**A.** 7.37%

**Q.** And the viability at 1 µM (HCT-116 [9])?
**A.** 68%

**Q.** And the viability at 4 µM (HCT-116 [10])?
**A.** 68.3%

**Q.** And the Activity (HCT-116 [11])?
**A.** 18.3%

**Q.** What about the Activity (HCT-116 [12]) of the same compound?
**A.** 14.2%

**Q.** What about the Activity (HCT-116 [13]) of the same compound?
**A.** 0.92%

**Q.** What about the Activity (HCT-116 [14]) of the same compound?
**A.** 0.6%

**Q.** What about the Activity (HCT-116 [15]) of the same compound?
**A.** 51.3%

**Q.** What about the Activity (HCT-116 [16]) of the same compound?
**A.** 35.2%

**Q.** What about the Activity (HCT-116 [17]) of the same compound?
**A.** 2.39%

**Q.** What about the Activity (HCT-116 [18]) of the same compound?
**A.** inactive

**Q.** And the Activity (HCT-116 [19])?
**A.** Active

**Q.** And the Activity (HCT-116 [20])?
**A.** Active

**Q.** What about the inhibition [21] of the same compound?
**A.** < 50%

**Q.** And the inhibition [22]?
**A.** < 50%

**Q.** What about the IC50 [23] of the same compound?
**A.** 420 nM

**Q.** What about the Papp A→B [24] of the same compound?
**A.** 1.02 ×10⁻⁶ cm/s

**Q.** And the Tmax [25]?
**A.** 4.8 min

**Q.** And the t1/2 [26]?
**A.** 5.29 h

**Q.** What about the t1/2 [27] of the same compound?
**A.** 3.37 h

**Q.** And the clearance [28]?
**A.** 13 mL/min/kg

**Q.** And the CL/F [29]?
**A.** 12.2 mL/min/kg

**Q.** And the Vd [30]?
**A.** 5.93 L/kg

**Q.** What about the bioavailability [31] of the same compound?
**A.** 107%

**Q.** And the inhibition in vivo at 40 mg/kg (SW-620 [32])?
**A.** 85.3%

**Q.** What about the Activity [33] of the same compound?
**A.** < 12%

**Q.** What about the Activity (HCT-116 [34]) of the same compound?
**A.** Active

**Q.** And the Activity (HCT-116 [35])?
**A.** Active
